# Source: US10828372B2, “Compositions and methods for the inhibition of fibrosis” (WISCONSIN ALUMNI RESEARCH FOUNDATION, priority 2017, dated 2020)
# Where no end group is shown, it is not given here.
# Experiments:
# UUO kidneys = experiment: Unilateral Ureteral Obstruction (UUO) model of kidney fibrosis; format: in vivo, mouse; conditions: compared to saline-treated UUOs
# [1] = test system: human foreskin fibroblasts, AH1F cells; experiment: Cell viability of fibroblast monolayers in matrix assembly assays (Cell Titer-Glo / AlamarBlue); format: cell-based; conditions: for cell viability: doses ranging from 1 to 20 μM
# Experimental: Microtiter fibronectin matrix assembly assays: Exogenous plasma fibronectin matrix assembly assay: Binding and incorporation of AlexaFluor® 488-plasma fibronectin (A488-FN) to fibroblast monolayers (human foreskin fibroblasts, AH1F cells was carried out using methods known in the art. Briefly, fibroblasts (60000 per well) were allowed to adhere and spread for 2 hours in microtiter plates in 2% fetal calf serum (FCS)-containing DMEM. Peptides or modulators to be tested were added followed by 28 nM A488-FN. Cell monolayers with or without peptides and A488FN were incubated overnight at 37° C. with 5% CO2. Cell monolayers in microwells were washed with PBS or HBSS containing Ca^2+, Mg^2+. Fluorescence in 96-well plates was read using a microplate reader using bottom-readout capabilities at 485 nm excitation and 525 nm emission with 20 nm bandwidths. To estimate cell viability per well after the washes and measurement of fluorescence, an equal volume of luminescence reagent (Cell Titer-Glo®) was added followed by quantification of luminescence. Fluorescence of wells to which A488FN had not been added, i.e. intrinsic fluorescence of the cell monolayer was subtracted from fluorescence values of wells containing ligand. Data is presented respectively for fibronectin fibrillogenesis or cell viability as percent of fluorescence or luminescence values for wells with no peptides. Microplate microscopy was used to ascertain that fluorescence measurements correspond to fibrillary fibronectin.
# Endogenous (cellular) fibronectin assembly assay: This immunochemical assay measures the ECM incorporation of EDA-containing fibronectin synthesized by human fibroblasts and human proximal tubular epithelial cells. Human proximal epithelial cells, HK-2 cells, were obtained from ATCC (CRL-2190). The EDA+ fibronectin is a splice variant synthesized and secreted by a variety of cells mostly during embryonic development and during wound healing, ECM remodeling, or fibrotic conditions in the adult. Fibroblasts (AH1F) were cultured in DMEM (Gibco) containing 10% fetal calf serum, and human proximal tubular epithelial cells (HK-2) were cultured in keratinocyte serum free medium (KSFM, containing pituitary extract and rEGF, Invitrogen/Thermo Fisher). Both media also contained 2.5 mM glutamine, 100 IU/ml penicillin, and 100 μg/ml streptomycin. […] Fluorescence of AlamarBlue® was read at 555 nm excitation and 585 nm emission. […] Similar to the measurement of exogenous A488-FN fluorescence, A488-EDA fluorescence was read using microplate reader equipped with bottom-readout capabilities at 485 nm excitation and 525 nm emission. […]
# breast cancer = experiment: Murine models of breast cancer; conditions: mouse, in vivo
Substance,"decrease of fibronectin in ECM fractions (immunoblot, normalized to H3) (UUO kidneys)",cell viability [1],decrease in fibroblast viability ([1]; highest concentration tested (500 nM)),effect on tumor volume (breast cancer),fibroblast viability ([1]; doses up to 500 nM)
"FUD: 49 amino acid FUD peptide, SEQ ID NO: 1, recombinantly expressed, His-tag removed; inhibitor of fibronectin fibrillogenesis (KDQSPLAGESGETEYITEVYGNQQNPVDIDKKLPNETGFSGNMVETEDT; human) [reference compound]",approximately 60%,80%,approximately 20%,inhibit tumor volume,–
"PEG-FUD: PEGylated FUD prepared as in Example 1, PEG size not stated; approximately 27 kDa by mass spectrometry, likely the 20 kDa conjugate (KDQSPLAGESGETEYITEVYGNQQNPVDIDKKLPNETGFSGNMVETEDT; not fully specified (N-terminus); also: PEG size not given here)",approximately 80%,80%,–,inhibit tumor volume,approximately 100%
